Experimental data from patent publication US20170119776A1, “CHIRAL 2,5-DISUBSTITUTED CYCLOPENTANECARBOXYLIC ACID DERIVATIVES AND USE THEREOF” (BAYER PHARMA AKTIENGESELLSCHAFT, priority 2014, published 2017).

How the values were obtained:
[1] = Hepatocyte assay for determining the metabolic stability; assay type: in vitro ADME; conditions: incubation with rat hepatocytes; read-out: Fmax (maximum possible bioavailability, well-stirred)
Description: (§1) The metabolic stability of test compounds towards hepatocytes is determined by incubating the compounds at low concentrations (preferably below or around 1 μM) and at low cell counts (preferably at 1*10^6 cells/ml) in order to ensure the greatest possible linear kinetic conditions in the experiment. Seven samples from the incubation solution are removed within a stipulated time frame for the LC-MS analysis in order to determine the half life (i.e. the degradation) of the particular compound. This half life is used to calculate various “Clearance” parameters (CL) and “Fmax” values (see below).
(§2) The CL and Fmax values are a measure of the phase 1 and phase 2 metabolism of the compounds in the hepatocytes. In order to keep the influence of the organic solvent on the enzymes in the incubation mixtures as low as possible, its concentration is generally limited to 1% (acetonitrile) or 0.1% (DMSO).
(§3) For all species and races, a hepatocyte cell count in the liver of 1.1*10^8 cells/g of liver is estimated.
(§4) The calculated parameters and their meaning are: • Fmax well-stirred [%] Maximum possible bioavailability following oral application
(§5) Calculation: (1−CLblood well-stirred/QH)*100 • CLblood well-stirred [L/(h*kg)] Calculated blood clearance (well stirred model) […]

rat hepatocytes = assay: as above; assay type: in vitro ADME; conditions: incubation with rat hepatocytes
Description: as §1, §2, §3, §4, §5

[2] = Pharmacokinetic investigations in vivo, rat; conditions: Rat (Wistar)
Description: (§6) The substance to be examined is administered to rats, mice or dogs intravenously as a solution (for example in corresponding plasma with a small addition of DMSO or in a PEG/ethanol/water mixture), and peroral administration is effected as a solution (for example in Solutol/ethanol/water or PEG/ethanol/water mixtures) or as a suspension (e.g. in a water/tylose mixture), in each case via a gavage. After administration of the substance, blood is taken from the animals at fixed times. The blood is heparinized, then plasma is obtained therefrom by centrifugation. The test substance is quantified analytically in the plasma via LC-MS/MS. From the plasma concentration/time plots determined in this way, using an internal standard and with the aid of a validated computer program, the pharmacokinetic parameters, such as AUC (area under the concentration/time curve), Cmax (maximum plasma concentration), t1/2 (half life), VSS (distribution volume) and CL (clearance), and the absolute and relative bioavailability F and Frel (i.v./p.o. comparison or comparison of suspension to solution after p.o. administration), are calculated.

[3] = Pharmacokinetic investigations in vivo, mouse; conditions: Mouse (C57BL/6)
Description: as §6

[4] = Pharmacokinetic investigations in vivo, dog; conditions: Dog (Beagle)
Description: as §6

[5] = plasma, iv, read-out: CLPlasma CLblood (converted)
[6] = plasma, po, p.o., read-out: t1/2 p.o. (converted)

bioavailability [1]: 84.4%
CLblood (calculated blood clearance, well-stirred) (rat hepatocytes): 10.8 mL/min/kg
F ([2]; bioavailability from solution): 100%
AUCnorm i.v. ([2]; i.v.): 93.6 kg·h/L
Frel ([2]; suspension vs solution p.o.): 97%
clearance [2, 5]: 0.183 mL/min/kg
half-life [2, 6]: 8.4 h
F ([3]; bioavailability from solution): 84%
AUCnorm i.v. ([3]; i.v.): 44.6 kg·h/L
clearance [3, 5]: 0.367 mL/min/kg
half-life [3, 6]: 5 h
F ([4]; bioavailability from solution): 100%
AUCnorm i.v. ([4]; i.v.): 10.6 kg·h/L
clearance [4, 5]: 1.57 mL/min/kg
half-life [4, 6]: 14.4 h
Compound: O=C(O)[C@H]1[C@H](Cn2nnc3ccccc3c2=O)CC[C@@H]1C(=O)c1ccc(OCc2ccccc2)cc1 [Example 2, (+)-(1S,2S,5R)-2-[4-(Benzyloxy)benzoyl]-5-[(4-oxo-1,2,3-benzotriazin-3(4H)-yl)methyl]cyclopentanecarboxylic acid]
